SMILES	logP
Oc1cc(Cl)cc(Cl)c1	3.26
Cc1cc(C)c(C)c(C)c1C	4.56
Cc1cc(C)cc(C)c1	3.84
Nc1ccc(Cl)c(Cl)c1Cl	3.33
ClC1=C(Cl)C2(Cl)C3C4CC(C5OC45)C3C1(Cl)C2(Cl)Cl (configuration not stated)	5.11
Nc1c(Cl)cccc1Cl	2.71
Oc1ccc(Cl)c(Cl)c1	3.05
Nc1cc(Cl)c(Cl)c(Cl)c1	3.32
Cc1cc(C)c(C)c(C)c1	4.17
Cc1ccc(C)c(C)c1C	4.11
Nc1c(Cl)c(Cl)c(Cl)c(Cl)c1Cl	4.59
Oc1cc(Cl)c(Cl)c(Cl)c1	3.75
